Results as given in ChEMBL document CHEMBL1134732, “Acid dissociation constant, a potential physicochemical factor in the inhibition of the enzyme estrone sulfatase (ES)” (Bioorg Med Chem Lett, 2001).

Key:
[1] = Dissociation constant was determined; format: physicochemical
[2] = target: T1, Steryl-sulfatase (Homo sapiens, UniProt P08842); experiment: Inhibitory concentration against estrone sulfatase
T1 sequence (P08842 whole entry): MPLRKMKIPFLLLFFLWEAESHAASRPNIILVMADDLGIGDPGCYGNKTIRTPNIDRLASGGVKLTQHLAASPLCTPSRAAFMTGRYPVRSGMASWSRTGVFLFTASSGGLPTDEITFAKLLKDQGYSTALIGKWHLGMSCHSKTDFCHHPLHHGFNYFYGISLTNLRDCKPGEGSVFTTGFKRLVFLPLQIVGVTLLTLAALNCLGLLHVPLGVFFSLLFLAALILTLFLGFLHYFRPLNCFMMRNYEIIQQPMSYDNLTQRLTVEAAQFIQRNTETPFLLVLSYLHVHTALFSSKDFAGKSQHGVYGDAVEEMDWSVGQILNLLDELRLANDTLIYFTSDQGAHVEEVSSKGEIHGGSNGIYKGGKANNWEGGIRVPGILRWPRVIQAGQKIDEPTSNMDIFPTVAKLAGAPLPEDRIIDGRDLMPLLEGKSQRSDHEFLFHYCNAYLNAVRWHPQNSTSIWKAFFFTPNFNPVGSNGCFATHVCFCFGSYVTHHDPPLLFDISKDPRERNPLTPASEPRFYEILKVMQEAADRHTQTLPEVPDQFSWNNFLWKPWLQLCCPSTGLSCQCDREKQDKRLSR

[3] = target: T2, Steryl-sulfatase (Homo sapiens) (UniProt P08842); experiment: (§1) Potency for the inhibition of estrone sulfatase relative to coumate
T2 sequence (whole entry): T1 sequence (P08842 whole entry)

[4] = as §1

| Compound | pKa [1] | IC50 [2] | Relative potency [3] | Relative potency [4] |
| --- | --- | --- | --- | --- |
| NS(=O)(=O)Oc1cccc(F)c1 | 9.16 | 2090 µM | 174 |  |
| NS(=O)(=O)Oc1cccc([N+](=O)[O-])c1 | 8.28 | 120 µM | 10 |  |
| N#Cc1ccc(OS(N)(=O)=O)cc1 | 8.02 | 300 µM | 25 |  |
| NS(=O)(=O)Oc1ccc(Br)cc1 | 9.29 | 912 µM | 76 |  |
| NS(=O)(=O)Oc1ccccc1 [PHENYLSULFAMATE] | 9.98 | > 10000 µM |  |  |
| C[C@]12CC[C@@H]3c4ccc(OS(N)(=O)=O)cc4CC[C@H]3[C@@H]1CCC2=O [EMATE] |  | 0.1 µM |  | 0.008 |
| Cc1cccc(OS(N)(=O)=O)c1 | 10 | > 10000 µM |  |  |
| NS(=O)(=O)Oc1ccc2ccc(=O)oc2c1 |  | 12 µM |  | 1 |
| NS(=O)(=O)Oc1cccc(Cl)c1 | 9 | 537 µM | 45 |  |

Further lines, with some results ahead:

| pKa [1] | IC50 [2] | Relative potency [3] | Compound | Relative potency [4] |
| --- | --- | --- | --- | --- |
| 8.95 | 257 µM | 21 | NS(=O)(=O)Oc1cccc(Br)c1 |  |
| 8.54 | 190 µM | 16 | N#Cc1cccc(OS(N)(=O)=O)c1 |  |
| 7.15 | 330 µM | 27.5 | NS(=O)(=O)Oc1ccc([N+](=O)[O-])cc1 |  |
| 9.8 | > 10000 µM |  | NS(=O)(=O)Oc1ccc(F)cc1 |  |
| 10.2 | > 10000 µM |  | Cc1ccc(OS(N)(=O)=O)cc1 |  |
| 9.5 | 1580 µM | 132 | NS(=O)(=O)Oc1ccc(Cl)cc1 |  |
